Assay results published in patent US11072588B2, “Barbituric acid derivatives comprising cationic and lipophilic groups” (UNIVERSITETET I TROMSØ—NORGES ARKTISKE UNIVERSITET, priority 2017, dated 2021).
Where two headings read alike, the source gives them in different places.

Experiments:
[1] = tested on: Corynebacterium glutamicum ATCC 13032; test: MIC assay, antibiotic susceptible reference strain; format: cell-based; settings: Corynebacterium glutamicum, ATCC13032, read-out: Antimicrobial activity (MIC) C. g
Outline: (§1)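 Broth microdilution followed CLSI M07-A9 with modifications: inoculum ~2.5-3×10^4 cells/mL in Mueller-Hinton broth, mixed 1:1 with test derivative, incubated 48 h at 35 °C. MIC was the lowest concentration giving no growth by OD600, tested in three parallels, with oxytetracycline as reference antibiotic.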

[2] = tested on: Escherichia coli ATCC 25922; test: MIC assay, antibiotic susceptible reference strain; format: cell-based; settings: Escherichia coli, ATCC25922, read-out: Antimicrobial activity (MIC) E. c
Outline: as §1

[3] = tested on: Pseudomonas aeruginosa PA01, DSM 19880 (ATCC 15692); test: MIC assay, antibiotic susceptible reference strain; format: cell-based; settings: Pseudomonas aeruginosa, read-out: Antimicrobial activity (MIC) P. a
Outline: as §1

[4] = tested on: Staphylococcus aureus ATCC 9144; test: MIC assay, antibiotic susceptible reference strain; format: cell-based; settings: Staphylococcus aureus, ATCC9144, read-out: Antimicrobial activity (MIC) S. a
Outline: as §1

S. aureus IHT 99040 = test: MIC, multi-resistant clinical isolate; format: cell-based, Staphylococcus aureus; settings: for selectivity index (EC50/MIC): RBC EC50 / MIC; for MIC: Staphylococcus aureus, IHT99040, read-out: Antimicrobial activity (MIC)
S. aureus N315 = test: MIC, multi-resistant clinical isolate; format: cell-based, Staphylococcus aureus; settings: for selectivity index (EC50/MIC): RBC EC50 / MIC, S. aureus N315; for MIC: Staphylococcus aureus, N315, read-out: Antimicrobial activity (MIC)
S. aureus NCTC 10442 = test: MIC, multi-resistant clinical isolate; format: cell-based, Staphylococcus aureus; settings: for selectivity index (EC50/MIC): RBC EC50 / MIC, S. aureus NCTC 10442; for MIC: Staphylococcus aureus, NCTC10442, read-out: Antimicrobial activity (MIC)
S. aureus strain 85/2082 = test: MIC, multi-resistant clinical isolate; format: cell-based, Staphylococcus aureus; settings: for selectivity index (EC50/MIC): RBC EC50 / MIC, S. aureus strain 85/2082; for MIC: Staphylococcus aureus, 85/2082, read-out: Antimicrobial activity (MIC)
S. aureus strain WIS = test: MIC, multi-resistant clinical isolate; format: cell-based, Staphylococcus aureus; settings: for selectivity index (EC50/MIC): RBC EC50 / MIC, S. aureus strain WIS; for MIC: Staphylococcus aureus, read-out: Antimicrobial activity (MIC)
E. coli 50579417 = test: MIC, multi-resistant clinical isolate; format: cell-based, Escherichia coli; settings: for MIC: Escherichia coli, read-out: Antimicrobial activity (MIC); for selectivity index (EC50/MIC): RBC EC50 / MIC
E. coli 50639799 = test: MIC, multi-resistant clinical isolate; format: cell-based, Escherichia coli; settings: for MIC: Escherichia coli, read-out: Antimicrobial activity (MIC); for selectivity index (EC50/MIC): RBC EC50 / MIC
E. coli 50676002 = test: MIC, multi-resistant clinical isolate; format: cell-based, Escherichia coli; settings: for selectivity index (EC50/MIC): RBC EC50 / MIC
E. coli 50739822 = test: MIC, multi-resistant clinical isolate; format: cell-based, Escherichia coli; settings: for MIC: Escherichia coli, read-out: Antimicrobial activity (MIC); for selectivity index (EC50/MIC): RBC EC50 / MIC
E. coli 50857972 = test: MIC, multi-resistant clinical isolate; format: cell-based, Escherichia coli; settings: for MIC: Escherichia coli, read-out: Antimicrobial activity (MIC); for selectivity index (EC50/MIC): RBC EC50 / MIC
P. aeruginosa 50692172 = test: MIC, multi-resistant clinical isolate; format: cell-based, Pseudomonas aeruginosa; settings: for MIC: Pseudomonas aeruginosa, read-out: Antimicrobial activity (MIC)
P. aeruginosa 50692520 = test: MIC, multi-resistant clinical isolate; format: cell-based, Pseudomonas aeruginosa; settings: for MIC: Pseudomonas aeruginosa, read-out: Antimicrobial activity (MIC)
P. aeruginosa K34-73 = test: MIC, multi-resistant clinical isolate; format: cell-based, Pseudomonas aeruginosa; settings: for MIC: Pseudomonas aeruginosa
P. aeruginosa K34-7 = test: MIC, multi-resistant clinical isolate; format: cell-based, Pseudomonas aeruginosa; settings: for MIC: Pseudomonas aeruginosa, K347, read-out: Antimicrobial activity (MIC)
P. aeruginosa K44-24 = test: MIC, multi-resistant clinical isolate; format: cell-based, Pseudomonas aeruginosa; settings: for MIC: Pseudomonas aeruginosa, K4424, read-out: Antimicrobial activity (MIC)
K. pneumoniae 50531633 = test: MIC, multi-resistant clinical isolate; format: cell-based, Klebsiella pneumoniae; settings: K. pneumoniae 50531633, resistant to colistin; for MIC: Klebsiella pneumoniae, 24 h, read-out: Antimicrobial activity (MIC); for selectivity index (EC50/MIC): RBC EC50 / MIC
K. pneumoniae 50625602 = test: MIC, multi-resistant clinical isolate; format: cell-based, Klebsiella pneumoniae; settings: for MIC: Klebsiella pneumoniae, read-out: Antimicrobial activity (MIC); for selectivity index (EC50/MIC): RBC EC50 / MIC
K. pneumoniae 50667959 = test: MIC, multi-resistant clinical isolate; format: cell-based, Klebsiella pneumoniae; settings: for MIC: Klebsiella pneumoniae, read-out: Antimicrobial activity (MIC); for selectivity index (EC50/MIC): RBC EC50 / MIC
K. pneumoniae K66-45 = test: MIC, multi-resistant clinical isolate; format: cell-based, Klebsiella pneumoniae; settings: for MIC: Klebsiella pneumoniae, K6645, read-out: Antimicrobial activity (MIC); for selectivity index (EC50/MIC): RBC EC50 / MIC, K. pneumoniae K66-45
S. epidermidis = test: Anti-biofilm activity (inhibition of biofilm formation); format: cell-based; settings: Staphylococcus epidermidis, read-out: Anti-biofilm IC50

CC(C)(C)c1ccc(CC2(Cc3ccc(C(C)(C)C)cc3)C(=O)N(CCCCN)C(=O)N(CCCCN)C2=O)cc1 [Compound 7(i), 1,3-bis(4-aminobutyl)-5,5-bis(4-tertbutylbenzyl) pyrimidin-2,4,6(1H,3H,5H)-trione]
4 µg/mL: MIC [2] | MIC [4] | MIC (E. coli 50676002; Escherichia coli, 50676002, read-out: Antimicrobial activity (MIC)) | MIC (E. coli 50857972) | IC50 (S. epidermidis)
16 µg/mL: MIC (K. pneumoniae 50531633) | MIC (K. pneumoniae 50625602)
1 µg/mL: MIC [1]
(18): selectivity index (EC50/MIC) (S. aureus IHT 99040) | selectivity index (EC50/MIC) (S. aureus N315) | selectivity index (EC50/MIC) (S. aureus NCTC 10442) | selectivity index (EC50/MIC) (S. aureus strain 85/2082) | selectivity index (EC50/MIC) (S. aureus strain WIS) | selectivity index (EC50/MIC) (E. coli 50579417) | selectivity index (EC50/MIC) (E. coli 50639799) | selectivity index (EC50/MIC) (E. coli 50739822)
(36): selectivity index (EC50/MIC) (E. coli 50676002; E. coli 50676002) | selectivity index (EC50/MIC) (E. coli 50857972)
(4): selectivity index (EC50/MIC) (K. pneumoniae 50667959) | selectivity index (EC50/MIC) (K. pneumoniae K66-45)
> 32 µg/mL: MIC (P. aeruginosa 50692172) | MIC (P. aeruginosa 50692520) | MIC (P. aeruginosa K34-73; K3473, read-out: Antimicrobial activity (MIC)) | MIC (P. aeruginosa K34-7) | MIC (P. aeruginosa K44-24)
8 µg/mL: MIC [3] | MIC (S. aureus IHT 99040) | MIC (S. aureus N315) | MIC (S. aureus NCTC 10442) | MIC (S. aureus strain 85/2082) | MIC (S. aureus strain WIS) | MIC (E. coli 50579417) | MIC (E. coli 50639799) | MIC (E. coli 50739822)
(9): selectivity index (EC50/MIC) (K. pneumoniae 50531633) | selectivity index (EC50/MIC) (K. pneumoniae 50625602)
32 µg/mL: MIC (K. pneumoniae 50667959) | MIC (K. pneumoniae K66-45)

CC(C)(C)c1ccc(CC2(Cc3ccc(C(C)(C)C)cc3)C(=O)N(CCCCNC(=N)N)C(=O)N(CCCCNC(=N)N)C2=O)cc1 [Compound 8(i), 1,1′-(4,4′-(5,5-bis(4-tert-butylbenzyl)-2,4,6-trioxodihydropyrimidine-1,3(2H,4H)-diyl)bis(butane-4,1-diyl))diguanidine]
2 µg/mL: MIC [2] | MIC (S. aureus IHT 99040) | MIC (S. aureus N315) | MIC (S. aureus NCTC 10442) | MIC (S. aureus strain 85/2082) | MIC (S. aureus strain WIS)
4 µg/mL: MIC [3] | MIC (E. coli 50579417) | MIC (E. coli 50639799) | MIC (E. coli 50676002; Escherichia coli, E. coli 50676002, read-out: Antimicrobial activity (MIC)) | MIC (E. coli 50739822) | MIC (E. coli 50857972) | MIC (K. pneumoniae 50531633) | MIC (K. pneumoniae 50625602) | MIC (K. pneumoniae K66-45)
(19): selectivity index (EC50/MIC) (E. coli 50579417) | selectivity index (EC50/MIC) (E. coli 50639799) | selectivity index (EC50/MIC) (E. coli 50676002; E. coli 50676002) | selectivity index (EC50/MIC) (E. coli 50739822) | selectivity index (EC50/MIC) (E. coli 50857972) | selectivity index (EC50/MIC) (K. pneumoniae 50531633) | selectivity index (EC50/MIC) (K. pneumoniae 50625602) | selectivity index (EC50/MIC) (K. pneumoniae K66-45)
(10): selectivity index (EC50/MIC) (P. aeruginosa K34-73; RBC EC50 / MIC, P. aeruginosa K34-73)
1 µg/mL: MIC [4] | IC50 (S. epidermidis)
< 0.13 µg/mL: MIC [1]
(39): selectivity index (EC50/MIC) (S. aureus IHT 99040) | selectivity index (EC50/MIC) (S. aureus N315) | selectivity index (EC50/MIC) (S. aureus NCTC 10442) | selectivity index (EC50/MIC) (S. aureus strain 85/2082) | selectivity index (EC50/MIC) (S. aureus strain WIS)
(5): selectivity index (EC50/MIC) (P. aeruginosa 50692172; RBC EC50 / MIC) | selectivity index (EC50/MIC) (P. aeruginosa 50692520; RBC EC50 / MIC) | selectivity index (EC50/MIC) (P. aeruginosa K34-7; RBC EC50 / MIC, P. aeruginosa K34-7) | selectivity index (EC50/MIC) (P. aeruginosa K44-24; RBC EC50 / MIC) | selectivity index (EC50/MIC) (K. pneumoniae 50667959)
8 µg/mL: MIC (P. aeruginosa K34-73; K3473, P. aeruginosa K34-73, read-out: Antimicrobial activity (MIC))
16 µg/mL: MIC (P. aeruginosa 50692172) | MIC (P. aeruginosa 50692520) | MIC (P. aeruginosa K34-7) | MIC (P. aeruginosa K44-24) | MIC (K. pneumoniae 50667959)
